Legend:
[1] = biological target: Matrix metalloproteinase-9 (Homo sapiens, UniProt P14780)
Description: Inhibitory activity against the Matrix metalloprotease-9

[2] = biological target: Neutrophil collagenase (Homo sapiens, UniProt P22894)
Description: Inhibitory activity against the Matrix Metalloprotease-8

[3] = biological target: 72 kDa type IV collagenase (Homo sapiens, UniProt P08253)
Description: Inhibitory activity against the Matrix Metalloprotease 2 (MMP-2)

[4] = biological target: T1, Interstitial collagenase (Homo sapiens, UniProt P03956)
T1 sequence (P03956 whole entry): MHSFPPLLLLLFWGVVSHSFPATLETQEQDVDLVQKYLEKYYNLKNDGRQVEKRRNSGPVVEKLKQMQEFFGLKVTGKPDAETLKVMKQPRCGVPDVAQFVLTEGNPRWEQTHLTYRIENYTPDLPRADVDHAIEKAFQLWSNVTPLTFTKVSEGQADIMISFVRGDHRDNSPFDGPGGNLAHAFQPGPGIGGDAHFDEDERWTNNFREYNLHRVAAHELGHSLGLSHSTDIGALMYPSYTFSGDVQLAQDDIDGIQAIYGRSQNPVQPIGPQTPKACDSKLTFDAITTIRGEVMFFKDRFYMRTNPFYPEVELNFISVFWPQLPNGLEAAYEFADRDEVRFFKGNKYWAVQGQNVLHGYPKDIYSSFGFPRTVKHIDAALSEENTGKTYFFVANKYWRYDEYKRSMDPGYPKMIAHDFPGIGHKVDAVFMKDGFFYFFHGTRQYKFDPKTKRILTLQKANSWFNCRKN
Description: Inhibitory activity against the Matrix Metalloprotease 1 (MMP-1)

Chain of Matrix metalloproteinase-9 (P14780 whole entry): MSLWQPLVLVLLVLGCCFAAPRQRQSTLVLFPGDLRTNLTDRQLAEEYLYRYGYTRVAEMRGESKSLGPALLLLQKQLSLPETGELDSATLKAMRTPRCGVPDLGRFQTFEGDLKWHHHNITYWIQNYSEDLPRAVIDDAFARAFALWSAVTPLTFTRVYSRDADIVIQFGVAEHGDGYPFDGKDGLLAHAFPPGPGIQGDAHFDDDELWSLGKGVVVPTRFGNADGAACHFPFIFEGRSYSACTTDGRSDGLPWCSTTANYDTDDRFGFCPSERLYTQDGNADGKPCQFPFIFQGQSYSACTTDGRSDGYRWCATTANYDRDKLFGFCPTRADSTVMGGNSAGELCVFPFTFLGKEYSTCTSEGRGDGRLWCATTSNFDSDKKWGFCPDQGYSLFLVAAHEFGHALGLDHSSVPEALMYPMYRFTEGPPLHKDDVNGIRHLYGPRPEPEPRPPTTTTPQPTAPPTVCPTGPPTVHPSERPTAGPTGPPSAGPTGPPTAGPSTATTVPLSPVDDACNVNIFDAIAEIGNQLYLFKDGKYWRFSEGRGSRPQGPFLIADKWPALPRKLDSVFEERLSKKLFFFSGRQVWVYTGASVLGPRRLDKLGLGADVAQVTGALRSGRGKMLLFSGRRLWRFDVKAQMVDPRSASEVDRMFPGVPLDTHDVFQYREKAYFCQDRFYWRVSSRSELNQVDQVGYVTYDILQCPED
Chain of 72 kDa type IV collagenase (P08253 whole entry): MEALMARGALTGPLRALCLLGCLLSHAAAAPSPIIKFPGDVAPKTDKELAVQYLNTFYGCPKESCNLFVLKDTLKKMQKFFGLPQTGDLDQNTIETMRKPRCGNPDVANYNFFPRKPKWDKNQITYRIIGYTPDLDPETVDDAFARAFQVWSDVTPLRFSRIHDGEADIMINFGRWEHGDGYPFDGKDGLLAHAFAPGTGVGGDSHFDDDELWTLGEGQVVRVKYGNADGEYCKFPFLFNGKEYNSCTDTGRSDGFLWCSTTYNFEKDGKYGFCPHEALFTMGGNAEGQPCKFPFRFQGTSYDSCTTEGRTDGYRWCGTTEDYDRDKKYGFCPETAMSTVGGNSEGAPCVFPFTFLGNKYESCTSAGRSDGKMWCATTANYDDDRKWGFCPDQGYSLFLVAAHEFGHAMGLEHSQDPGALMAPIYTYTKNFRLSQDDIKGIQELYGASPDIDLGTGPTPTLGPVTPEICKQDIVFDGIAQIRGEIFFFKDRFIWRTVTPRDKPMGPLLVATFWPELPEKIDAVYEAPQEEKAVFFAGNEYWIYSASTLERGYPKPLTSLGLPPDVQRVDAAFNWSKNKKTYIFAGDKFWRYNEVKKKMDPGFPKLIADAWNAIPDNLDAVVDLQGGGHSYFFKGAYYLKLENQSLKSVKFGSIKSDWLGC
Chain of Neutrophil collagenase (P22894 whole entry): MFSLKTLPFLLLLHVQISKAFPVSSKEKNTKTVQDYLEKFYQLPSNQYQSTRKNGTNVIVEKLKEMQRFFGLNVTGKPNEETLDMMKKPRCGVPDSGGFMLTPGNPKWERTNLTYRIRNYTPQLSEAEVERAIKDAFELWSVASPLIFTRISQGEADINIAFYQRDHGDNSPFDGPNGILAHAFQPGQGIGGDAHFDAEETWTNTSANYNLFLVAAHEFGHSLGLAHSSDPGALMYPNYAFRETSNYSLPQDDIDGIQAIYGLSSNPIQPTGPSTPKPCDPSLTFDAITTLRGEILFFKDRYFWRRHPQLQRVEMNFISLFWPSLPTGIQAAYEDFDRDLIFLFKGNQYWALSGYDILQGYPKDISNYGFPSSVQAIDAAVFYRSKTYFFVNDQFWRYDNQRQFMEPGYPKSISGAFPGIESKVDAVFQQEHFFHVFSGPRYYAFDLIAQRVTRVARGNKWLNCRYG

O=C(CN(Cc1ccc([N+](=O)[O-])cc1)S(=O)(=O)c1ccc([N+](=O)[O-])c(Cl)c1)NO
Ki [1]: 7 nM
Ki [2]: 6 nM
Ki [3]: 7 nM
Ki [4]: 31 nM

O=C(CN(Cc1ccc([N+](=O)[O-])cc1)S(=O)(=O)c1ccccc1[N+](=O)[O-])NO
Ki [1]: 14 nM
Ki [2]: 13 nM
Ki [3]: 15 nM
Ki [4]: 59 nM

Cc1ccc(S(=O)(=O)NC(=O)N(CC(=O)NO)Cc2ccc([N+](=O)[O-])cc2)cc1
Ki [1]: 8 nM
Ki [2]: 6 nM
Ki [3]: 6 nM
Ki [4]: 54 nM

O=C(CN(Cc1ccc([N+](=O)[O-])cc1)S(=O)(=O)c1ccc(Br)cc1)NO
Ki [1]: 21 nM
Ki [2]: 21 nM
Ki [3]: 13 nM
Ki [4]: 25 nM

O=C(CN(Cc1ccc([N+](=O)[O-])cc1)S(=O)(=O)c1cc(Cl)ccc1Cl)NO
Ki [1]: 17 nM
Ki [2]: 13 nM
Ki [3]: 10 nM
Ki [4]: 9 nM

Cc1ccc(S(=O)(=O)N(CC(=O)NO)Cc2ccc([N+](=O)[O-])cc2)cc1
Ki [1]: 27 nM
Ki [2]: 24 nM
Ki [3]: 20 nM
Ki [4]: 30 nM

O=C(CN(Cc1ccc([N+](=O)[O-])cc1)Sc1ccc([N+](=O)[O-])cc1)NO
Ki [1]: 11 nM
Ki [2]: 8 nM
Ki [3]: 10 nM
Ki [4]: 18 nM

O=C(CN(Cc1ccc([N+](=O)[O-])cc1)S(=O)(=O)c1cccc(NC(=O)NS(=O)(=O)c2ccc(Cl)cc2)c1)NO
Ki [1]: 1.6 nM
Ki [2]: 1.3 nM
Ki [3]: 1.5 nM
Ki [4]: 50 nM

O=C(CN(Cc1ccc([N+](=O)[O-])cc1)S(=O)(=O)c1ccc(C(=O)O)cc1)NO
Ki [1]: 2.8 nM
Ki [2]: 2.4 nM
Ki [3]: 2.5 nM
Ki [4]: 34 nM

O=C(CN(Cc1ccc([N+](=O)[O-])cc1)S(=O)(=O)C(F)(F)C(F)(F)C(F)(F)C(F)(F)C(F)(F)C(F)(F)C(F)(F)C(F)(F)F)NO
Ki [1]: 1.3 nM
Ki [2]: 1.3 nM
Ki [3]: 0.9 nM
Ki [4]: 79 nM

O=C(CN(Cc1ccc([N+](=O)[O-])cc1)S(=O)(=O)c1ccc(NC(=O)NS(=O)(=O)c2ccccc2)cc1)NO
Ki [1]: 0.9 nM
Ki [2]: 0.7 nM
Ki [3]: 0.6 nM
Ki [4]: 61 nM

O=C(CN(Cc1ccc([N+](=O)[O-])cc1)S(=O)(=O)c1ccc([N+](=O)[O-])cc1)NO
Ki [1]: 8 nM
Ki [2]: 7 nM
Ki [3]: 9 nM
Ki [4]: 15 nM

O=C(CN(Cc1ccc([N+](=O)[O-])cc1)S(=O)(=O)C(Cl)(Cl)Cl)NO
Ki [1]: 25 nM
Ki [2]: 19 nM
Ki [3]: 17 nM
Ki [4]: 24 nM

CC(C)(C)OC(=O)Nc1cccc(S(=O)(=O)N(CC(=O)NO)Cc2ccc([N+](=O)[O-])cc2)c1
Ki [1]: 14 nM
Ki [2]: 15 nM
Ki [3]: 11 nM
Ki [4]: 26 nM

Cc1ccccc1S(=O)(=O)NC(=O)Nc1cccc(S(=O)(=O)N(CC(=O)NO)Cc2ccc([N+](=O)[O-])cc2)c1
Ki [1]: 3 nM
Ki [2]: 2 nM
Ki [3]: 2.8 nM
Ki [4]: 58 nM

O=C(CN(Cc1ccc([N+](=O)[O-])cc1)C(=O)Nc1cccc2ccccc12)NO
Ki [1]: 33 nM
Ki [2]: 39 nM
Ki [3]: 35 nM
Ki [4]: > 100 nM

O=C(O)CN(Cc1ccc([N+](=O)[O-])cc1)S(=O)(=O)c1cccc(NC(=O)NS(=O)(=O)c2ccccc2)c1
Ki [1]: 22 nM
Ki [2]: 27 nM
Ki [3]: 19 nM
Ki [4]: > 100 nM

COc1ccc(S(=O)(=O)N(CC(=O)NO)Cc2ccc([N+](=O)[O-])cc2)cc1NC(=O)OC(C)(C)C
Ki [1]: 7 nM
Ki [2]: 7 nM
Ki [3]: 5 nM
Ki [4]: 25 nM

O=C(O)CN(Cc1ccc([N+](=O)[O-])cc1)S(=O)(=O)c1ccc(NC(=O)NS(=O)(=O)c2ccccc2)cc1
Ki [1]: 21 nM
Ki [2]: 23 nM
Ki [3]: 18 nM
Ki [4]: > 100 nM

CC(=O)Nc1ccc(S(=O)(=O)N(CC(=O)NO)Cc2ccc([N+](=O)[O-])cc2)cc1
Ki [1]: 12 nM
Ki [2]: 9 nM
Ki [3]: 8 nM
Ki [4]: 14 nM

O=C(CN(Cc1ccc([N+](=O)[O-])cc1)S(=O)(=O)c1cccc(C(=O)O)c1)NO
Ki [1]: 2.5 nM
Ki [2]: 3.3 nM
Ki [3]: 3 nM
Ki [4]: 41 nM

Cc1ccccc1S(=O)(=O)NC(=O)Nc1ccc(S(=O)(=O)N(CC(=O)NO)Cc2ccc([N+](=O)[O-])cc2)cc1
Ki [1]: 0.7 nM
Ki [2]: 1.5 nM
Ki [3]: 1.6 nM
Ki [4]: 72 nM

O=C(CN(Cc1ccc([N+](=O)[O-])cc1)C(=O)NS(=O)(=O)c1ccc(Cl)cc1)NO
Ki [1]: 5 nM
Ki [2]: 4 nM
Ki [3]: 3 nM
Ki [4]: 46 nM

CN(C)S(=O)(=O)N(CC(=O)NO)Cc1ccc([N+](=O)[O-])cc1
Ki [1]: 43 nM
Ki [2]: 35 nM
Ki [3]: 36 nM
Ki [4]: 26 nM

CC(C)(C)OC(=O)Nc1ccc(S(=O)(=O)N(CC(=O)NO)Cc2ccc([N+](=O)[O-])cc2)cc1
Ki [1]: 10 nM
Ki [2]: 11 nM
Ki [3]: 10 nM
Ki [4]: 17 nM

O=C(CN(Cc1ccc([N+](=O)[O-])cc1)C(=O)NS(=O)(=O)c1ccccc1)NO
Ki [1]: 3 nM
Ki [2]: 4 nM
Ki [3]: 5 nM
Ki [4]: 39 nM

CN(C)c1cccc2c(S(=O)(=O)N(CC(=O)NO)Cc3ccc([N+](=O)[O-])cc3)cccc12
Ki [1]: 53 nM
Ki [2]: 58 nM
Ki [3]: 41 nM
Ki [4]: 83 nM

Cc1ccc(S(=O)(=O)NC(=O)Nc2cccc(S(=O)(=O)N(CC(=O)NO)Cc3ccc([N+](=O)[O-])cc3)c2)cc1
Ki [1]: 3.1 nM
Ki [2]: 2.1 nM
Ki [3]: 2.5 nM
Ki [4]: 53 nM

O=C(CN(Cc1ccc([N+](=O)[O-])cc1)S(=O)(=O)c1ccc(I)cc1)NO
Ki [1]: 16 nM
Ki [2]: 17 nM
Ki [3]: 19 nM
Ki [4]: 29 nM

CS(=O)(=O)N(CC(=O)NO)Cc1ccc([N+](=O)[O-])cc1
Ki [1]: 30 nM
Ki [2]: 24 nM
Ki [3]: 19 nM
Ki [4]: 75 nM

O=C(O)CN(Cc1ccc([N+](=O)[O-])cc1)S(=O)(=O)c1ccc(NC(=O)NS(=O)(=O)c2ccc(Cl)cc2)cc1
Ki [1]: 36 nM
Ki [2]: 24 nM
Ki [3]: 21 nM
Ki [4]: 95 nM

O=C(CN(Cc1ccc([N+](=O)[O-])cc1)S(=O)(=O)c1cccc(NC(=O)NS(=O)(=O)c2ccccc2)c1)NO
Ki [1]: 1.3 nM
Ki [2]: 1 nM
Ki [3]: 1.2 nM
Ki [4]: 60 nM

Cc1cc(C)c(S(=O)(=O)N(CC(=O)NO)Cc2ccc([N+](=O)[O-])cc2)c(C)c1
Ki [1]: 39 nM
Ki [2]: 29 nM
Ki [3]: 25 nM
Ki [4]: 36 nM

O=C(CN(Cc1ccc([N+](=O)[O-])cc1)S(=O)(=O)c1ccc(F)cc1)NO
Ki [1]: 14 nM
Ki [2]: 15 nM
Ki [3]: 15 nM
Ki [4]: 19 nM

O=C(CN(Cc1ccc([N+](=O)[O-])cc1)S(=O)(=O)c1ccc(NC(=O)NS(=O)(=O)c2ccc(Cl)cc2)cc1)NO
Ki [1]: 1 nM
Ki [2]: 1.1 nM
Ki [3]: 0.8 nM
Ki [4]: 50 nM

O=C(CN(Cc1ccc([N+](=O)[O-])cc1)S(=O)(=O)c1cccc(C(F)(F)F)c1)NO
Ki [1]: 0.8 nM
Ki [2]: 0.7 nM
Ki [3]: 1.1 nM
Ki [4]: 5 nM

Cc1ccc(S(=O)(=O)NC(=O)Nc2ccc(S(=O)(=O)N(CC(=O)O)Cc3ccc([N+](=O)[O-])cc3)cc2)cc1
Ki [1]: 25 nM
Ki [2]: 28 nM
Ki [3]: 24 nM
Ki [4]: 94 nM

O=C(CN(Cc1ccc([N+](=O)[O-])cc1)C(=S)NC(=O)c1ccccc1)NO
Ki [1]: 1.4 nM
Ki [2]: 1.5 nM
Ki [3]: 2 nM
Ki [4]: 37 nM

O=C(CN(Cc1ccc([N+](=O)[O-])cc1)S(=O)(=O)c1cccs1)NO
Ki [1]: 10 nM
Ki [2]: 12 nM
Ki [3]: 13 nM
Ki [4]: 14 nM

O=C(CN(Cc1ccc([N+](=O)[O-])cc1)C(=O)Nc1ccc(Cl)c(Cl)c1)NO
Ki [1]: 7 nM
Ki [2]: 5 nM
Ki [3]: 6 nM
Ki [4]: 31 nM

Cc1ccc(S(=O)(=O)NC(=O)Nc2cccc(S(=O)(=O)N(CC(=O)O)Cc3ccc([N+](=O)[O-])cc3)c2)cc1
Ki [1]: 21 nM
Ki [2]: 30 nM
Ki [3]: 21 nM
Ki [4]: > 100 nM

O=C(CN(Cc1ccc([N+](=O)[O-])cc1)S(=O)(=O)c1ccc(NC(=O)NS(=O)(=O)c2ccc(F)cc2)cc1)NO
Ki [1]: 1.2 nM
Ki [2]: 0.5 nM
Ki [3]: 0.6 nM
Ki [4]: 54 nM

O=C(CN(Cc1ccc([N+](=O)[O-])cc1)S(=O)(=O)c1cccc(NC(=O)NS(=O)(=O)c2ccc(F)cc2)c1)NO
Ki [1]: 2.5 nM
Ki [2]: 1.4 nM
Ki [3]: 1.8 nM
Ki [4]: 49 nM

O=C(O)CN(Cc1ccc([N+](=O)[O-])cc1)S(=O)(=O)c1cccc(NC(=O)NS(=O)(=O)c2ccc(F)cc2)c1
Ki [1]: 18 nM
Ki [2]: 34 nM
Ki [3]: 15 nM
Ki [4]: > 100 nM
